Test results as given in US12343319B2, “Compositions and methods for treatment of diseases and disorders” (Atai Therapeutics Inc., priority 2023, dated 2025).

Assays:
Male Sprague-Dawley rats [1] = assay: Rat forced swim test, immobility frequency; type: in vivo; conditions: 10 mg/kg, i.p., once 24 hours prior to the swim test
Protocol: Male Sprague-Dawley rats were placed individually in clear acrylic swim chambers (40 cm height×20.3 cm diameter) filled to 16 cm for a 15-minute pre-swim session on day 1 and filled to 30 cm for a 5-minute swim test session 24 hours later. Rats (n=10 per treatment group) were administered compound 2-1 (3, 10, 30 mg/kg, i.p., 1 mL/kg, based on weight of the free base) or vehicle (40% (w/v) 2-HPBCD in water, i.p.) at 23.5, 16 and 0.5 hours prior to the swim test. The rapid-acting antidepressant, ketamine (10 mg/kg, i.p.), was included in the study as a positive control condition and injected once 24 hours prior to the swim test.

[2] = system: primary cortical rat neurons; assay: Synaptogenesis assay in primary cortical rat neurons; type: cell-based
Protocol: Pregnant rats for this study were purchased from a commercial breeder. Primary cortical neurons from E17/E18 rat pups were isolated and seeded in 96-well plates. Cells were treated with compound 2-2, FGF (Reference item) or vehicle. After incubation with the respective treatment, cortical neurons were stained for synapsin and tubulin using immunofluorescence.
Stained cells were imaged with the Cytation 5 Multimode reader. From each well, 9 images were taken at 10× magnification. Digital images from cortical neurons were analyzed for the following parameter using a software-supported automatic quantification method: Number of synapsin positive objects. Analysis was performed using Gen5 software. The experiment was run in n=10 technical replicates per condition. Vehicle control and FGF were included on each plate totaling n=20 technical replicates.
Primary cortical neurons were prepared from timed pregnant Spargue Dawley rats at E17/E18. Animals were sacrificed (see section 3.3.1) and embryos were dissected in Calcium and Magnesium free Hanks Balanced Salt Solution (CMF-HBSS) containing 15 mM HEPES and 10 mM NaHCO3, pH 7.2. Embryos were decapitated, skin and skull gently removed and hemispheres were separated. After removing meninges and brain stem, the cortices were isolated, chopped with a sterile razor blade in Chop solution (Hibernate-E without Calcium containing 2% B-27) and digested in 2 mg/mL papain (Worthington) dissolved in Hibernate-E without Calcium for 30 minutes (±5 min) at 30° C. The cortices of the embryos from the two rats were pooled and processed together.
Cortices were triturated for 10-15 times with a fire-polished silanized Pasteur pipette in Hibernate-E without Calcium containing 2% B-27, 0.01% DNaseI, 1 mg/mL BSA, and 1 mg/mL Ovomucoid Inhibitor. Undispersed pieces were allowed to settle by gravity for 3 min and the supernatant was centrifuged for 3 min at 228 g. […]
Cells were counted in a hemacytometer and seeded in nutrition medium on poly-D-lysine pre-coated 96-well plates at a density of 1.5×10^4 cells/well. […]

5-HT2A receptor [3] = target: T1, 5-HT2A receptor (Mus musculus, UniProt P35363); design: endogenous in cells; host or cells: adult male C57BL/6J mice, in vivo; conditions: i.p., same assay, Klein et al., 2021; cited from earlier work
T1 sequence (P35363 whole entry): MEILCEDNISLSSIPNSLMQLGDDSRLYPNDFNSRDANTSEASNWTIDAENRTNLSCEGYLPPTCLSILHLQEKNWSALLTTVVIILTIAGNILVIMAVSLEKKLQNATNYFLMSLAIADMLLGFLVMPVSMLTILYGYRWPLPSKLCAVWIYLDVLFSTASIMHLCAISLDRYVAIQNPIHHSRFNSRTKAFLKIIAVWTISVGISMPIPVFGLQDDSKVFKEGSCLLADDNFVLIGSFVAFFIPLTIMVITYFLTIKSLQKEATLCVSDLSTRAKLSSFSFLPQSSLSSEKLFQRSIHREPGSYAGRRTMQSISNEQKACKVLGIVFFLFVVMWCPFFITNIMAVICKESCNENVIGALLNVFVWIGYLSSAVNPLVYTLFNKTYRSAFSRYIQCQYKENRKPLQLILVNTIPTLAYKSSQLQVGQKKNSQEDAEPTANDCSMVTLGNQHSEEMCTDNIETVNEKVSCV

5-HT2A receptor [4] = target: T1, 5-HT2A receptor; assay: 5-HT2A receptor binding in mouse frontal cortical tissue; conditions: for Ki: Mean (Mouse), mouse frontal cortical tissue
Male Sprague-Dawley rats [5] = assay: 5-HT2A/2C/1A-mediated behaviors, locomotor activity and body temperature in rats; type: in vivo, rat; conditions: 1 mg/kg SC
Protocol: Forty (40) male Sprague-Dawley rats were used as test subjects in this study. Animals were dosed with vehicle (IP), one of 3 doses of compound 2-2 (3 mg/kg, 10 mg/kg, 30 mg/kg IP) or psilocybin (1 mg/kg SC) and, following the appropriate pre-treatment time, were placed in locomotor activity boxes and continuously monitored for a 1 hr period with data collected into 10-minute time bins. Animals were visually assed for overt behavioral signs, including biomarkers for 5-HT2A receptor target engagement (i.e. wet dog shakes, back muscle contractions and stereotypic behaviors), 5-HT2C receptor activation (yawning, penile grooming), and 5-HT1A behaviors (forepaw treading, hindlimb abduction). Additional behavioral and somatic signs characteristic of 5-HT syndrome (i.e. tremor, salivation, flat body posture) also were measured. Core body temperature change was determined at 0 hr (pre-dose), 1 hr, and 2 hr. Simultaneously, the spontaneous locomotor activity of the rats was measured using automated Med Associates activity test chambers. Activity data collected included total distance travelled, rearing counts, and ambulatory episodes. LMA was measured for a total of 2 hours (i.e. the first hour to include visual assessments of behavioral signs, and the second hour the animals will not be assessed for behavioral signs) with data collected into 10 minute time bins. The tracking arena measured 17″ W×17″ L×12″ H, sensor bars were secured 1″ above the floor to track distance travelled, and a second set of sensor bars were placed ˜5″ above the floor to measure vertical movement and rearing activity. The parameters set on the tracking software were as follows: resolution −50 ms, box size −4 beams, resting delay −500 ms, and ambulatory trigger −3.
Table 14 outlines receptor activity and related behavioral and/or physiological measures.

Male WKY rats = assay: Sleep-wake behavior, EEG power, body temperature and locomotor activity in WKY rats; type: in vivo, rat; conditions: over 6 hours post dose, WKY rats, IP
Protocol: Male WKY rats (n=7, 289-388 g at the start of dosing) were housed in groups of 2-3 animals per cage with standard housing conditions. For implantation of the EEG electrodes and radio transmitter, the animals were anesthetized with isoflurane (2-5% in oxygen at 11/min) throughout the procedure. The scalp, neck and right flank were cleared of hair using clippers and cleaned using diluted Hibitane (chlorhexidine, 50% (v/v) in water). A non-steroidal anti-inflammatory agent was administered (carprofen 5 mg/kg, s.c.) and the animals placed on a homeothermic blanket (37° C.) with the head fixed in a stereotaxic frame. Incisions were made in the scalp and neck, as well as in the right flank. Blunt dissection of the abdominal muscle was then made to gain access to the peritoneal cavity. A radio transmitter (HD-S02, Data Sciences International) was implanted in the peritoneal cavity and secured to the muscle wall with non-absorbable sutures. The wires of the transmitter were passed using a 19G needle through the muscle wall and then sub-dermally to the scalp to act as Electroencephalogram (EEG)/Electromyograph (EMG) electrodes. The scalp was cleared of connective tissue and two craniotomies were made with a trepanning drill (fronto-parietal coordinates; Bregma+2 mm anterior, midline+1.0 mm lateral and Lambda 0 mm, +1.5 mm lateral). The positive EEG electrode was attached to the anterior craniotomy and the negative EEG electrode to the posterior craniotomy. Both electrodes were secured in place using a suitable adhesive agent (cyanoacrylate gel, RS components). A second set of electrodes were sutured into the nuchal muscle to act as EMG electrodes. All incisions were closed using absorbable suture.
All animals were allowed to recover in a warm environment and given 5 ml of saline subcutaneously (s.c.). Animals were kept singly in the cage until the next day, then pair housed for the duration of post-surgical recovery (minimum 7 days). During the recovery period, the rats received 5 days of standard post-operative care with no further experimental procedures until the pre-operative body weight was regained. The animals were maintained on a 12/12 hour light dark cycle (08:00 am lights on) after the surgery. Home cages and post-operative cages contained bedding and nesting material, along with environmental enrichment such as wooden chew-sticks and plastic tunnels.
On test days, ˜60 minutes after lights-on, animals were placed in recording boxes similar to their home-cages, except that environmental enrichment was restricted to a large bundle of nesting and bedding material, to avoid interference with the telemeter signals. Then, data acquisition was initiated for confirmation of signal quality. EEG and EMG data were acquired using intraperitoneal HD-S02 transmitters (DSI, New Brighton, MN) and Spike2 software (CED). EEG and EMG signals were digitized 500 samples/second, amplified 1000× and bandpass filtered at 0.5-100 Hertz (Hz). After 60 minutes of habituation, each animal was briefly removed from its box and dosed via the intraperitoneal (i.p.) route in a volume of 2 mL/kg. Test conditions included saline vehicle, psilocybin (10 mg/kg) positive control, compound 2-1 at 3, 10 and 30 mg/kg and compound 2-2 at 10, 17 and 30 mg/kg. Doses were based on the molecular weight of the free bases. compound 2-1 and compound 2-2 dosing solutions were prepared in 40% (w/v) hydroxypropyl-beta-cyclodextrin. After dosing, animals were immediately put back into the recording boxes, the experimenter left the room, and recordings continued uninterrupted for 23 hours. At the end of the recording session, the transmitters were turned off and the animals were returned to their home cages. All animals received all treatment conditions in a pseudo randomized cross-over fashion with a minimum washout period of 7 days between doses.
All data was aligned to zero (the time of dosing), with epochs defined as non-overlapping 10-second time segments. […]

[6] = target: T2, 5-HT2A receptors in the mouse frontal cortex (Mus musculus, UniProt P35363); assay: Ex vivo 5-HT2A receptor occupancy ([3H]cimbi-36) in mouse frontal cortex; conditions: mouse, 3 mg/kg IP, 15 minutes post dosing
T2 construct: Left frontal cortices from each animal were homogenized individually; from tissue
T2 sequence (P35363 whole entry): as above

SMILES: CNC1(c2ccccc2Cl)CCCCC1=O (stereo not drawn) [Ketamine, ketamine, reference compound]
- immobility compared to vehicle (Male Sprague-Dawley rats [1]): significantly decreased

SMILES: CN(C)CCc1c[nH]c2ccccc12 [N,N-DMT]
- synaptogenesis compared to VC (synapsin positive objects normalized to tubulin III area) ([2]; 1 μM (highest concentration), DIV1-DIV10): significant increase
- synaptogenesis compared to VC (synapsin positive objects normalized to tubulin III area) ([2]; lower concentrations (below 1 μM)): no significance

SMILES: CN(C)CCc1c[nH]c2cccc(O)c12 [Psilocin, psilocin]
- HTR ED50 (5-HT2A receptor [3]): 0.17 mg/kg
- IC50 (5-HT2A receptor [4]): 99 nM
- Ki (5-HT2A receptor [4]; Ki): 45.1 nM
- Ki (5-HT2A receptor [4]; pKi): 45.7 nM

SMILES: CN(C)CCc1c[nH]c2cccc(OP(=O)(O)O)c12 [Psilocybin, psilocybin, reference compound]
- distance travelled during the first 20 minutes of the 2 hour test (Male Sprague-Dawley rats [5]): decreased
- total locomotor activity measures (Male Sprague-Dawley rats [5]): did not affect
- body temperature (Male WKY rats): ↓(for 6 h)
- receptor occupancy at 3 mg/kg ([6]; read-out: % Receptor Occupancy (RO)): 19%
- remaining activity at 3 mg/kg ([6]; read-out: % of Control Binding): 81%
